Reference: publication PMC5810560 (Chemico-biological interactions, 2017)
Where “and” joins values, the source holds several entries; their conditions need not be identical. Equal values may be shown once.

Key:
[1] = mice dosed with 80 mg/kg; ref Radic et al., 2012; cited from earlier work
[2] = Parallel artificial membrane permeability assay; conditions: 100 μM in HBSS
[3] = tested on: Human cerebral microvascular cells (HCMEC/D3); assay: Brain endothelial cell traversal; conditions: 100 μM in HBSS, apical to basolateral
[4] = RS194B plasma pharmacokinetics; conditions: for AUC0-t: t = 24 h
[5] = RS194B biodistribution / brain penetration in perfused tissues; conditions: guinea pig
[6] = dose increase from 10 to 200 mg/kg (20-fold), IV
[7] = guinea pig plasma, single IM dose 50 mg/kg
[8] = guinea pig plasma, single IV dose 10 mg/kg
[9] = guinea pig plasma, single IV dose 50 mg/kg
[10] = guinea pig plasma, single IV dose 100 mg/kg
[11] = guinea pig plasma, single IV dose 200 mg/kg
[12] = IM 50 mg/kg, total tissue weight

O=C(C=NO)NCCN1CCCCCC1 [RS194B]
brain/plasma ratio [1]: 0.3 | effective permeability (Peff), PAMPA ([2]; five hours, 25°C, vs threshold for moderate permeability): < 2 ×10⁻⁶ cm/s | PAMPA diffusion relative to controls ([2]; vs 2-PAM and diazepam positive control): increased diffusion relative to the 2-PAM standard of care, rate of permeation was dramatically lower than the diazepam positive control | permeability across HCMEC/D3 monolayer relative to controls [3]: permeability was improved over that of 2-PAM, but was lower than that of a known permeable compound | increase in mean AUC0-t [4, 6]: 32 fold | increase in mean C0 [4, 6]: 25 fold | power regression slope, AUC0-t vs dose ([4]; dose range 10-200 mg/kg IV): 1.13 | power regression slope, C0 vs dose ([4]; dose range 10-200 mg/kg IV): 1.09 | tmax ([4]; guinea pig plasma, IM 50 mg/kg): 0.5 h | mean apparent distribution half-life (t1/2α), range ([4]; guinea pig plasma, across four IV doses 10-200 mg/kg): 0.78 to 1.5 h | AUC0-inf [4, 7]: 78740 ± 3750 ng·h/mL | C0 [4, 7]: 24900 ± 1440 ng/mL | CL [4, 7]: 10.697 ± 0.522 mL/min/kg | T1/2;β [4, 7]: 8.53 ± 1.49 h | Vd [4, 7]: 7.729 ± 1.08899 L/kg | t1/2α [4, 7]: 0.87 ± 0.13 h | AUC0-t [4, 7]: 73500 ± 2410 ng·h/mL | AUC0-inf [4, 8]: 17530 ± 1350 ng·h/mL | C0 [4, 8]: 6230 ± 150 ng/mL | CL [4, 8]: 9.8418 ± 0.8645 mL/min/kg | T1/2;β [4, 8]: 10.41 ± 1.54 h | Vd [4, 8]: 8.67515 ± 1.99977 L/kg | t1/2α [4, 8]: 0.79 ± 0.07 h | AUC0-t [4, 8]: 15270 ± 1230 ng·h/mL | C0 [4, 9]: 42770 ± 2500 ng/mL | CL [4, 9]: 9.1108 ± 0.4573 mL/min/kg | T1/2;β [4, 9]: 10.68 ± 1.94 h | Vd [4, 9]: 8.37818 ± 1.44868 L/kg | t1/2α [4, 9]: 1.03 ± 0.28 h | AUC0-t [4, 9]: 83800 ± 4050 ng·h/mL | AUC0-inf [4, 10]: 223600 ± 14560 ng·h/mL | C0 [4, 10]: 93180 ± 3400 ng/mL | CL [4, 10]: 7.5982 ± 0.4475 mL/min/kg | T1/2;β [4, 10]: 12.87 ± 2.16 h | Vd [4, 10]: 8.32203 ± 1.44265 L/kg | t1/2α [4, 10]: 0.78 ± 0.05 h | AUC0-t [4, 10]: 188050 ± 11100 ng·h/mL | AUC0-inf [4, 11]: 530830 ± 57860 ng·h/mL | C0 [4, 11]: 157660 ± 4340 ng/mL | CL [4, 11]: 6.6752 ± 0.7335 mL/min/kg | T1/2;β [4, 11]: 9.75 ± 1.83 h | Vd [4, 11]: 5.80208 ± 1.32987 L/kg | t1/2α [4, 11]: 1.50 ± 0.20 h | AUC0-t [4, 11]: 488520 ± 63160 ng·h/mL | plasma t1/2 ([4]; guinea pig, as summarised in abstract): ~1 h | brain/ plasma ([5]; IM 50 mg/kg, 0.08 hr (brain Cmax)): 0.058 and 0.06 ± 0.002 | brain/ plasma ([5]; IM 50 mg/kg, 0.25 hr): 0.04 ± 0.006 | brain/ plasma ([5]; IM 50 mg/kg, 0.5 hr): 0.03 ± 0.002 | brain/ plasma ([5]; IM 50 mg/kg, 1 hr): 0.02 ± 0.010 | brain/ plasma ([5]; IM 50 mg/kg, 2 hr): 0.02 ± 0.001 | brain/ plasma ([5]; IM 50 mg/kg, 4 hr): 0.06 ± 0.005 | brain/ plasma ([5]; IM 50 mg/kg, 8 hr): 0.08 ± 0.007 | brain/ plasma ([5]; IM 50 mg/kg, 24 hr): 0.19 ± 0.045 | Tissue level at Cmax, percent of administered dose, Brain [5, 12]: 0.02 ± 0.005% of administered dose | Tissue level at Cmax, percent of administered dose, Heart [5, 12]: 0.07 ± 0.02% of administered dose | Tissue level at Cmax, percent of administered dose, Kidney [5, 12]: 2.87 ± 0.48% of administered dose | Tissue level at Cmax, percent of administered dose, Liver [5, 12]: 7.04 ± 0.61% of administered dose | Tissue level at Cmax, percent of administered dose, Lung [5, 12]: 0.67 ± 0.16% of administered dose | Tissue level at Cmax, percent of administered dose, Spleen [5, 12]: 0.03 ± 0.01% of administered dose | brain-to-plasma ratio at later time points over ratio at Tmax ([5]; IM exposure): 3.2 times | brain/ plasma ([5]; IV 10 mg/kg, 0.08 hr (brain Cmax)): 0.04 ± 0.001 | brain/ plasma ([5]; IV 10 mg/kg, 0.25 hr): 0.040 ±0.002 | brain/ plasma ([5]; IV 10 mg/kg, 0.5 hr): 0.03 ± 0.002
